{"source": "patent US20240050392A1", "about": "“COMPOSITIONS AND METHODS FOR IMPROVED TREATMENT OF PLATINUM-BASED CHEMOTHERAPEUTIC RESISTANT TUMORS” (THE REGENTS OF THE UNIVERSITY OF THE COLORADO, A BODY …, priority 2021, published 2024)", "key": {"[1]": {"molecular_target": "T1, volume regulated anion channel (VRAC), LRRC8A and LRRC8D (Homo sapiens, UniProt Q7L1W4+Q8IWT6)", "T1 sequence (Q8IWT6 1-810)": "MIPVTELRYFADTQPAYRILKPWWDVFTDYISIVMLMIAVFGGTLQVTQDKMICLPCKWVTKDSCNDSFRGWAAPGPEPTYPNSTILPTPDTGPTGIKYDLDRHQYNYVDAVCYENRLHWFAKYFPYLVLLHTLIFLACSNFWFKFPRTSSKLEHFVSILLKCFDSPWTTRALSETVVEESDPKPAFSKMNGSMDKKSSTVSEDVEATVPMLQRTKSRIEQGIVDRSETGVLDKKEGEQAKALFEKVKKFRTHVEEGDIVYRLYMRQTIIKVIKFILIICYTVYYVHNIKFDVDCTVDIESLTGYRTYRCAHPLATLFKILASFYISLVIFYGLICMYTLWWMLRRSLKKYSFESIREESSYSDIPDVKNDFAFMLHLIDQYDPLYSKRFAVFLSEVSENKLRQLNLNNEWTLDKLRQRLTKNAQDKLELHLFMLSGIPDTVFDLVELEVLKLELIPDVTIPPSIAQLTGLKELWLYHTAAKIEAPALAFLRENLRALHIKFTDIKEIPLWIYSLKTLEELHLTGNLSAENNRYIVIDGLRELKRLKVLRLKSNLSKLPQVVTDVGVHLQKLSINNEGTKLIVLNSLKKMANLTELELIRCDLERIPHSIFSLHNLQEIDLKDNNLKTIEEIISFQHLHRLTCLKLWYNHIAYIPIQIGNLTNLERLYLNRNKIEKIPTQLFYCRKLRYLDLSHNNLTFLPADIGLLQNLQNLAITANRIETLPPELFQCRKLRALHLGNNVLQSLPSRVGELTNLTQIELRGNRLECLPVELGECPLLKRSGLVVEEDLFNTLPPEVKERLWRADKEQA", "T1 sequence (Q7L1W4 1-858)": "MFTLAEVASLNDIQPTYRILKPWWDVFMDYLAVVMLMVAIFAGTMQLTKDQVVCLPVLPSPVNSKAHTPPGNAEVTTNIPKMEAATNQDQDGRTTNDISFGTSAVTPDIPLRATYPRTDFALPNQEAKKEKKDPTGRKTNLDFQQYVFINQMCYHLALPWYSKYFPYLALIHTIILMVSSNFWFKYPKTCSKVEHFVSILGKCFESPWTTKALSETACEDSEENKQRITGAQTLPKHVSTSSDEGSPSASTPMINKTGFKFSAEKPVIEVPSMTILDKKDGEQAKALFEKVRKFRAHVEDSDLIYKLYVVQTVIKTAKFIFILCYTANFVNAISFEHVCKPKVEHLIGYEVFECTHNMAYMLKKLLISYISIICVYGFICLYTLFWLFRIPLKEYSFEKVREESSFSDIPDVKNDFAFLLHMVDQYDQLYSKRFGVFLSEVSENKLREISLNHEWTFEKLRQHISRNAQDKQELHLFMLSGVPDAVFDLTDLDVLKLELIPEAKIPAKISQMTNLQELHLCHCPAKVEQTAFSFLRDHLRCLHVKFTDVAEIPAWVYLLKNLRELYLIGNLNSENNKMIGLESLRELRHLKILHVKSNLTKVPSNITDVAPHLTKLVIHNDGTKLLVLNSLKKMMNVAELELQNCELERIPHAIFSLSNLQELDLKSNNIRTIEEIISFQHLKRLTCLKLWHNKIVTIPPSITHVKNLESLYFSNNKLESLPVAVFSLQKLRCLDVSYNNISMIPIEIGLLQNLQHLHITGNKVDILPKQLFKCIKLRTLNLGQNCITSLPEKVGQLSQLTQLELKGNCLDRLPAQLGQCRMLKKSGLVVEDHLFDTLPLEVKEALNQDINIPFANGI", "settings": "as reported; cited from earlier work"}, "KU1919-GemCis cells": {"test_system": "KU1919-GemCis cells", "assay": "Metabolomics of intracellular taurine", "assay_type": "cell-based, human", "settings": "KU1919-GemCis cells with knockdown of NPEPPS, 10 μM cisplatin", "procedure": "Given that VRACs transport cisplatin and carboplatin and finding NPEPPS in complex with VRAC subunits (FIGS. 4C-4D), NPEPPS may be a negative regulator of VRAC activity, consequently reducing import of intracellular cisplatin. Thus, the impact of NPEPPS on osmolytes known to be transported through VRACs was assessed.\nMetabolomics. Sample preparation. Cell lines were cultured for several passages in IMDM+10% FBS (IMDM10). Prior to experiment, cells were cultured in IMDM10 to ˜80% confluence and then dissociated. For dissociation, cells were washed once with room temperature PBS and then incubated with PBS+0.05% Trypsin-EDTA for 10-15 minutes. Cells were neutralized with IMDM10 and then fully dissociated by gentle pipetting. After dissociation, cells were counted by Trypan blue staining and then replated at 1×10^6 cells. 24 hours after plating, cells were treated with either IMDM10 or IMDM10+10 μM cisplatin. Day 0 cell cultures were immediately processed for metabolomics analysis. […] Cells were suspended in PBS, centrifuged a second time, and then resuspended in PBS and counted. […]\nData generation and analysis. […] Supernatants were clarified by centrifugation (10 minutes, 18,000 g, 4° C.) and 10 μL analyzed using a Thermo Vanquish UHPLC coupled to a Thermo Q Exactive mass spectrometer. […]"}}, "data": [{"smiles": "N.N.[Cl][Pt][Cl]", "note": "[cisplatin]", "values": [{"measurement": "share of intracellular cisplatin transported through VRAC channels", "setting": "[1]", "result": "50-70%"}, {"measurement": "intracellular levels of taurine", "setting": "KU1919-GemCis cells", "result": "reduced even further"}]}]}
